Measurements taken from patent publication US20230000949A1, “SOLID COMPOSITIONS COMPRISING A PCSK9 INHIBITOR AND A SALT OF N-(8-(2-HYDROXYBENZOYL)AMINO)CAPRYLIC ACID” (Novo Nordisk A/S, priority 2019, published 2023).

Conditions: pH 6

## NC(=O)c1cccnc1 [Nicotinamide]
  Effect on SNAC solubility: concentration dependent effect
